Assay results published in patent USRE48898E1, “Prodrugs of 2,4-pyrimidinediamine compounds and their uses” (Rigel Pharmaceuticals, Inc., priority 2006, dated 2022).
“Also recorded” adds a separate entry of the source. Structures can show the parent of a compound that is named as a salt. Where two headings read alike, the source gives them in different places.

What was measured:
[1] = system: collagen-induced arthritis; test: Collagen-induced arthritis (CIA); format: in vivo, Syngeneic LOU rats
Text: One of the experimental models for IC-mediated tissue injury is the CIA in rodents (Kleinau et al., 2000, J. Exp. Med. 191:1611-1616). Injection of type II collagen (CII) into rodents produces an immune reaction that characteristically involves inflammatory destruction of cartilage and bone of the distal joints with concomitant swelling of surrounding tissues. CIA in rats is commonly used to evaluate compounds that might be of potential use as drugs for treatment of rheumatoid arthritis and other chronic inflammatory conditions and is induced in susceptible strains of either mice or rats by injection of CII in incomplete Freund's adjuvant (IFA). Administration of this emulsion gives rise to polyarthritis, characterized by synovial hyperplasia, infiltration of mononuclear cells, pannus formation, and destruction of cartilage and bone. […] Syngeneic LOU rats were immunized on Day 0 with native chicken CII/IFA. Oral treatment began at the onset of arthritis symptoms (Day 10). […] Hind limbs were scored daily for clinical arthritis severity using a standardized method based on the degree of joint inflammation. High resolution digital radiographs of hind limbs were obtained at the conclusion of the study (Day 28). These limbs were also analyzed for histopathologic changes. IgG antibodies to native CII were measured in quadruplicate by ELISA. […] Brahn. 2004). Blinded composite histopathologic studies confirmed the regression of pannus and erosions: […] Antibodies to native CII were not decreased in Compound 1-treated rats.

[2] = system: FcϵRI-dependent production and release of LTC4; test: FcϵRI-dependent production and release of LTC4; format: cell-based
[3] = in vivo
Protocol: (§1) GLP toxicology studies included negative mutagenicity and clastogenicity studies (Ames, chromosomal aberration, and mouse micronucleus). […] The No Observed Adverse Effect Level (NOAEL) is 10-30 mg/kg/day for rats and 100 mg/kg/day for monkeys.

CHMCs = test: Ionomycin-induced degranulation of CHMCs; format: cell-based, Human
[4] = system: collagen antibody-induced arthritis (CAIA); test: Collagen antibody-induced arthritis (CAIA) model; format: in vivo, Balb/c mice
Text: This passive model differs from the traditional rodent collagen-induced arthritis (CIA) in that disease symptoms appear quickly (developing within 24-48 hrs after an IV-injection of antibodies), arthritis is inducible in both CIA-susceptible and CIA-resistant mouse strains, and it allows evaluation of inflammation that is independent of antibody production. CAIA was induced in Balb/c mice by intravenous injection of Arthrogen-CIA® Monoclonal Antibody Blend (Chemicon International, Inc., Temecula, Calif.) via the tail vein, followed 2 days later by an intraperitoneal injection of LPS. […] The severity of the arthritis in hind-paws was scored daily (scale of 0-4 per paw, sum of scores for both hind paws).

[5] = GLP mutagenicity and clastogenicity studies (Ames, chromosomal aberration, mouse micronucleus)
Protocol: as §1

[6] = system: FcϵRI-dependent production and release of cytokines; test: FcϵRI-dependent production and release of cytokines; format: cell-based; conditions: read-out: EC50, all cytokines tested
[7] = system: Reverse Passive Arthus (RPA) reaction; test: Reverse Passive Arthus (RPA) reaction; format: in vivo, rat
Text: IC-mediated acute inflammatory tissue injury is implicated in a variety of human autoimmune diseases, including vasculitis, serum sickness, systemic lupus erythematosus, RA, and glomerulonephritis. The classical experimental model for IC-mediated tissue injury is the Reverse Passive Arthus (RPA) reaction. Intravenous injection of antigen (ovalbumin, OVA) following intradermal injection of antibodies specific to OVA (rabbit anti-OVA IgG) results in perivascular deposition of IC and a rapid inflammatory response characterized by edema, neutrophil infiltration, and hemorrhage at the injection sites (Szalai, et al., 2000, J. Immunol. 164(1):463-468).

Water solubility = format: physicochemical
[8] = system: Cord-Blood Derived Primary Human Mast Cells (CHMC); test: FcϵRI-dependent activation of CHMC, activity of tryptase released upon degranulation; format: cell-based; conditions: Mast cell
[9] = Conversion of prodrug to drug in microsome preparations; format: in vitro ADME, rat
Text: Although phosphate-containing prodrugs suitable for oral administration are of interest, skilled artisans will appreciate that prodrugs including phosphate-containing progroups R^p can be administered via other routes of administration, as phosphatases are distributed throughout the body. […] Thus, the only requirement is that the particular phosphate-containing progroup R^p selected should be removable under the conditions of intended use.

[10] = Stability under acidic and neutral conditions; format: physicochemical; conditions: acidic and neutral conditions at 37° C.
Stability in rat plasma = format: in vitro ADME
Text: The presence of Phosphatase activity in rat plasma was confirmed using p-nitrophenyl phosphate—a known substrate for phosphatase.

[11] = Pharmacokinetics, IV and oral dosing; format: in vivo, Sprague-Dawley rats
Protocol: Prodrug Compound 4 was tested for oral bioavailability. For the study, the prodrug was dissolved in various vehicles (e.g. PEG 400 solution and CMC suspension) for intravenous and oral dosing in the rats. […] Following administration of the prodrug and/or drug, plasma samples were obtained and extracted. The plasma concentrations of the prodrug and/or drug were determined by high performance liquid chromatography/tandem mass spectrometry (LC/MS/MS) methods. Pharmacokinetic analyses were performed based on the plasma concentration data. The pharmacokinetic parameters of interest include Clearance (CL), Volume of distribution at steady-state (Vss), terminal half-life (t ½), and oral bioavailability (% F).
Referring to FIG. 4, PK profiles are shown for IV and PO administration in Sprague-Dawley rats. For IV administration, Compound 4 was dissolved in PEG-400 and administered at a dose of 1 mg/kg.
FIG. 5 summarizes the PK parameters for the study described in FIG. 4.
FIG. 11 illustrates the absorption of prodrug Compound 4 from different vehicles. […] Prodrug Compound 4 is absorbed equally well in solution formulations (PEG-400 and carboxymethylcellulose (CMC)) and as a powder in hard gelatin capsules.

[12] = Moisture sorption analysis; format: physicochemical
Protocol: The sample for moisture analysis was allowed to dry at 25° C. for up to 4 hours under a stream of dry nitrogen. The relative humidity was then increased stepwise from 10 to 90% relative humidity (adsorption scan) allowing the sample to equilibrate for a maximum of four hours before weighing and moving on to the next step. The desorption scan was measured from 85 to 0% relative humidity with the same equilibration time. The sample was then dried at 80° C. for 2 hours or until no weight loss was observed under a stream of dry nitrogen.

[13] = aqueous buffer, aqueous buffer under physiological conditions, read-out: water solubility
[14] = water, water solubility, read-out: Solubility
[15] = water, in water, read-out: solubility

SMILES: COc1cc(Nc2ncc(F)c(Nc3ccc4c(n3)NC(=O)C(C)(C)O4)n2)cc(OC)c1OC [Compound 1, N4-(2,2-dimethyl-3-oxo-4H-5-pyrido[1,4]oxazin-6-yl)-5-fluoro-N2-(3,4,5-trimethoxyphenyl)-2,4-pyrimidinediamine]
- arthritis severity ([1]; 30 mg/kg q.d. p.o., evident within 7 days after initiation of therapy, p<0.05): significant reduction
- Mean modified Mankin scores ([1]; 30 mg/kg, vehicle 11.8±0.9, p<0.001): 3.7±0.9
- clinical score ([1]; Day 28, 30 mg/kg, vehicle 6.08±0.67, p<0.001): 2.54±0.98
- joint damage, blinded radiographs ([1]; Day 28, vehicle 3.66±0.71, p<0.02): 1.63±0.67
- Antibodies to native CII ([1]; ELISA, treated rats): not decreased
- EC50 [2]: 39 nM
- 28-day toxicity findings ([3]; monkey): reversible effect on hematology
- 28-day toxicity findings ([3]; rat): reversible effect on hematology, liver transaminase (mild effect in the rat only), spleen and thymus size (rat only) and bone marrow cellularity (rat and monkey)
- CD45RA+ cells, immunophenotyping ([3]; rat): significant increase
- Histopathology ([3]; rat): mild reductions in marrow cellularity
- humoral immunity, anti-KLH antibody assessment ([3]; rat): no evidence for untoward effects
- percentage of CD3+ cells, immunophenotyping ([3]; rat): significant decrease
- inhibition of ionomycin-induced degranulation (CHMCs): does not inhibit
- arthritis severity, disease incidence, time of onset ([4]; lower dose levels, p>0.05): the differences were not significant
- clinical arthritis ([4]; oral, b.i.d., vs vehicle, p<0.05): significantly reduced clinical arthritis
- mutagenicity and clastogenicity [5]: negative
- EC50 [6]: 158 to 462 nM
- inhibition at 10 mg/kg ([7]; Rattus norvegicus, 10 mg/kg oral, rats, compared with vehicle control, read-out: inhibition of extravascular leakage of Evans blue dye (OD610) from tissue biopsies): 80%
- cutaneous RPA reaction and inflammatory edema ([7]; single oral treatment of rats one hour prior to antigen/antibody): reduced the cutaneous RPA reaction and inflammatory edema in a dose-dependent manner
- solubility (Water solubility; [13]): < 1 µg/mL
- solubility (Water solubility; phosphate buffer, pH 7.5, aqueous buffer, phosphate buffer at pH=7.5, read-out: measured solubility): < 1 µg/mL
- solubility (Water solubility; [14]): < 1 µg/mL
- EC50 [8]: ~43 nM

SMILES: COc1cc(Nc2ncc(F)c(Nc3ccc4c(n3)N(COP(=O)(O)O)C(=O)C(C)(C)O4)n2)cc(OC)c1OC [Compound 4, N4-(2,2-dimethyl-4-[(dihydrogenphosphonoxy)methyl]-3-oxo-5-pyrido[1,4]oxazin-6-yl)-5-fluoro-N2-(3,4,5-trimethoxyphenyl)-2,4-pyrimidinediamine]
- conversion to drug Compound 1 ([9]; intestinal and hepatic microsomes from a different source): metabolize to the active drug Compound 1; also recorded: conversion of Compound 4 to Compound 1 was observed
- conversion to drug Compound 1 ([9]; microsomal preparations obtained from Xenotech): failed to convert
- stability [10]: stable
- stability in rat plasma / hydrolysis to Compound 1 (Stability in rat plasma): metabolize to the active drug Compound 1; also recorded: unstable
- solubility of prodrug relative to active drug Compound 1 (Water solubility; aqueous buffer under physiological conditions): approximately 2000 times
- solubility (Water solubility; [13]): > 5000 µg/mL
- solubility (Water solubility; [14]): > 5000 µg/mL
- plasma profile of prodrug after IV administration ([11]; IV 1 mg/kg in PEG-400): Rapid disappearance
- levels of drug metabolite Compound 1 after oral prodrug ([11]; oral, PEG-400): high levels
- systemic presence of prodrug after oral administration ([11]; oral, PEG-400): no prodrug Compound 4 was present systemically
- AUC/dose (Compound 1 exposure) / absorption, prodrug vs drug Compound 1 ([11]; oral, Compound 4 4 mg/kg vs Compound 1 2.5 mg/kg in PEG-400): nearly identical
- dependence of absorption on formulation ([11]; rats, PEG-400 and CMC solutions, powder in hard gelatin capsules): not dependent upon formulation; also recorded: not dependent on formulation
- clearance of prodrug ([11]; study of FIG. 4/5): rapidly cleared

SMILES: COc1cc(Nc2ncc(F)c(Nc3ccc4c(n3)N(COP(=O)(O)O)C(=O)C(C)(C)O4)n2)cc(OC)c1OC [Prodrug Salt 6, N4-(2,2-dimethyl-4-[(dihydrogenphosphonoxy)methyl]-3-oxo-5-pyrido[1,4]oxazin-6-yl)-5-fluoro-N2-(3,4,5-trimethoxyphenyl)-2,4-pyrimidinediamine mono calcium salt]
- solubility (Water solubility; [15]): 15 µg/mL

SMILES: COc1cc(Nc2ncc(F)c(Nc3ccc4c(n3)N(COP(=O)([O-])[O-])C(=O)C(C)(C)O4)n2)cc(OC)c1OC.[Na+].[Na+] [prodrug salt hydrate 32, N4-(2,2-dimethyl-4-[(dihydrogenphosphonoxy)methyl]-3-oxo-5-pyrido[1,4]oxazin-6-yl)-5-fluoro-N2-(3,4,5-trimethoxyphenyl)-2,4-pyrimidinediamine disodium salt hexahydrate]
- water content ([12]; after humidity is increased): approximately 14.0%
- moisture content ([12]; dry conditions, ambient temperature, about 0% relative humidity): approximately 4.0%
- stability of hydration over relative humidity ([12]; hexahydrate form): stable over a wide range of relative humidities
- solubility (Water solubility; [15]): 10000 µg/mL
